The source of these data is patent publication US9670219B2, “Tetrahydrooxepinopyridine compound” (ASTELLAS PHARMA INC., priority 2015, dated 2017).

Counter-ions that a name gives are not always drawn.

Test [1] deals with T1, human α7 nACh receptor (Homo sapiens, UniProt P36544).
T1 construct: expressed in transfected cells; host or cells: HEK293 cells (ATCC CRL-1573), transient co-transfection by electroporation with rat RIC3 (NM_001115045.3)
The experiment in a line: Electrophysiological evaluation for human α7 nACh receptor (Qpatch HTX or Qube current response). On the set-up: key: positive: an inward current response specific to a human α7 nACh receptor was obtained when 3 μM of a test drug had been added; negative: a specific current response was not observed. In kind it is cell-based. To be noted: 3 μM test drug added simultaneously with 100 μM AChCl; voltage-clamped at −90 mV. As to the method:
The PAM activity of a test drug was evaluated by a current response in the presence of an α7 nACh receptor agonist Acetylcholine chloride (Sigma) (hereinafter, also referred to as AChCl) using Qpatch HTX (Biolin Scientific) or Qube (Biolin Scientific). This test cannot detect a small current response of AChCl alone. The current response can be detected only in the case where the test drug has a PAM activity.
Extracellular fluid (pH 7.4): NaCl 145 mM, KCl 4 mM, HEPES 10 mM, CaCl2 2 mM, MgCl2 1 mM.
Intracellular fluid (pH 7.2): KF 120 mM, KCl 20 mM, EGTA 0.1 mM, HEPES 10 mM, MgCl2 2 mM.
The cells were obtained in the same manner as in Test Example 1.
The response of a human α7 nACh receptor with the addition of a test drug was measured by the following experiment. Transient expression cells obtained by the method described above were subjected to the experiment after allowing to stand overnight at 37° C. The test drug was dissolved in DMSO, and then made to a final concentration of 3 μM using extracellular fluid. The agonist AChCl was made to a final concentration of 100 μM. The membrane potential was voltage-clamped at −90 mV. The current response was measured by multi-hole mode at the time of simultaneous addition of the test drug and AChCl to the cells, using QPatch HTX or Qube.
As a result of the tests above, the case where an inward current response specific to a human α7 nACh receptor was obtained when 3 μM of a test drug had been added was determined as positive, and the case where a specific current response was not observed was determined as negative. It should be noted that, when the agonist concentration is 0, the current response was not observed even with the addition of a test drug.
(In general: In patch-clamp work, channel activity is measured electrically.)

Test [2] addresses T1, human α7 nACh receptor. Briefly: Evaluation for human α7 nACh receptor using FLIPR (intracellular calcium response, PAM activity). In kind it is cell-based. The settings on record: for Max: maximum response of test drug with agonist PNU-282987, relative to maximum response of PNU-120596 = 100%; for EC20: test drug concentration giving 20% response, maximum response of PNU-120596 with agonist PNU-282987 (0.6 μM) = 100%, HEK293 cells co-expressing human α7 nACh receptor/rat RIC3. As to the method:
Assay buffer: HBSS buffer containing 1.25 mM probenecid.
The PAM activity of a test drug was evaluated in terms of Ca^2+ dye-based fluorescence intensity for an intracellular calcium response in the presence of an α7 nACh receptor-selective agonist PNU-282987 (CAS registry number: 123464-89-1, Tocris) using a FLIPR tetra (Molecular Devices).
In the case where a concentration-response curve has been obtained in which the logarithm of a concentration of a test drug is on the abscissa and the ratio of a response (hereinafter, also referred to as calcium response) is on the ordinate, this test drug has been determined to have a PAM activity.
In this test, the agonist (PNU-282987) elicited a calcium response only in the presence of PAM (PNU-120596).
The coding sequence of a human α7 nACh receptor (accession number: NM_000746.5) was subcloned into a pCEP4 vector (Life Technologies). The coding sequence of a rat chaperone protein RIC3 (accession number: NM_001115045.3) was subcloned into a pcDNA3.1/Hygro (+) vector (Life Technologies). The resulting constructs were transfected into HEK293 cells (ATCC number: CRL-1573) by an electroporation method using Neon (Life Technologies).
The transiently expressing cells obtained in the manner described above were seeded at a density of 8×10^3 cells/well onto a 384-well plate (Becton Dickinson) and allowed to stand overnight at 37° C. DMEM+10% FBS was used as a medium.
On the next day, the medium was removed, and Fluo4-AM (Dojindo) prepared using an assay buffer was applied, followed by allowing to stand for 1 hour. The test drug was dissolved in DMSO and then made to a final concentration of 0.03 to 100 μM (3-fold dilutions) with an assay buffer. Similarly, PNU-120596 which is a known PAM was made to a final concentration of 0.003 to 10 μM (3-fold dilutions). PNU-282987 which is an agonist was made to a final concentration of 0.6 μM. Thereafter, the test drug was applied to the cells using a FLIPR tetra, the agonist (PNU-282987) was added 5 minutes later, and the fluorescence intensity at that time was detected.
As a control, using (1) a group with neither addition of a test drug, PAM (PNU-120596) nor that of agonist (PNU-282987), the response thereof was set to 0%. Using (2) a group with the addition of PAM (PNU-120596) and agonist (PNU-282987), the maximum response thereof was set to 100%.
To quantitatively compare the PAM activity of the test drug, an EC20 value and a Max value were used as activity indicators. […] The EC20 value was calculated using a non-linear regression analysis from the concentration-response curve of a human α7 nACh receptor with the addition of a test drug. The Max value refers to a maximum response value. The Max value is expressed in terms of % value of the maximum response of a test drug in the presence of an agonist (PNU-282987) relative to when the maximum response of PAM (PNU-120596) in the presence of an agonist (PNU-282987) is set to 100%.
Background: Calcium flux is commonly read through the fluorescence of an indicator in the cells.

T1 sequence (P36544 23-502): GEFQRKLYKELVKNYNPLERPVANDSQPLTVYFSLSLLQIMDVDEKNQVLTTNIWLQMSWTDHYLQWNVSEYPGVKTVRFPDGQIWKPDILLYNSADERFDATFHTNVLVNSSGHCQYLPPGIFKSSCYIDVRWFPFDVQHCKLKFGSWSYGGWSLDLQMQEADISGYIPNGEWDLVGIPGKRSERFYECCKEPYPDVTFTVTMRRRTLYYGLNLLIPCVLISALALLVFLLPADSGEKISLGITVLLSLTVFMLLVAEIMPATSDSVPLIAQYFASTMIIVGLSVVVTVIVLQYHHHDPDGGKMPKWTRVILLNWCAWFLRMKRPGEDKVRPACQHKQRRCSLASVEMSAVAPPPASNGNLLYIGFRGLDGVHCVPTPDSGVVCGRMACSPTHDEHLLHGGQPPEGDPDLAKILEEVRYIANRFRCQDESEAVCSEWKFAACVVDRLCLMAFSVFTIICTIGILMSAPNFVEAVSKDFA

For the compound `Cc1cncc(NC(=O)c2cc(N3CCC[C@@H]3C)nc3c2CCOCC3)n1` [Ex 40, N-(6-methylpyrazin-2-yl)-2-[(2S)-2-methylpyrrolidin-1-yl]-5,6,8,9-tetrahydrooxepino[4,5-b]pyridine-4-carboxamide hydrochloride], the “Dat. 1 (Determination)” value at human α7 nACh receptor [1] is reported as “positive”.

Regarding `CO[C@H]1CCN(c2cc(C(=O)Nc3cccc(C#N)c3)c3c(n2)CCOCC3)C1` [Ex 48, N-(3-cyanophenyl)-2-[(3S)-3-methoxypyrrolidin-1-yl]-5,6,8,9-tetrahydrooxepino[4,5-b]pyridine-4-carboxamide hydrochloride], the “Dat. 1 (Determination)” value at human α7 nACh receptor [1] is “positive”.

Take `Cc1ncc(NC(=O)c2cc(N3CCC[C@@H]3C)nc3c2CCOCC3)nc1C` [Ex 55]: the “Dat. 1 (Determination)” value at human α7 nACh receptor [1] was “positive”. Consider `C[C@@H]1CN(c2cc(C(=O)Nc3ccc(Cl)cn3)c3c(n2)CCOCC3)C[C@H](C)O1` [Ex 18, N-(5-chloropyridin-2-yl)-2-[(2R,6S)-2,6-dimethylmorpholin-4-yl]-5,6,8,9-tetrahydrooxepino[4,5-b]pyridine-4-carboxamide hydrochloride], for which, at human α7 nACh receptor [2], the Max amounted to 79.2% and the concentration for an effect of 20% (EC20) (commonly the concentration needed for an effect of 20%) turned out to be 1020 nM. Further, the “Dat. 1 (Determination)” value at human α7 nACh receptor [1] was “positive”. On to `O=C(Nc1cccnn1)c1cc(N2CCC(F)CC2)nc2c1CCOCC2` [Ex 50], for which the “Dat. 1 (Determination)” value on human α7 nACh receptor [1] is reported as “positive”. As to `C[C@H]1CCCCN1c1cc(C(=O)Nc2cnccn2)c2c(n1)CCOCC2` [Ex 70, 2-[(2S)-2-methylpiperidin-1-yl]-N-(pyrazin-2-yl)-5,6,8,9-tetrahydrooxepino[4,5-b]pyridine-4-carboxamide hydrochloride], on human α7 nACh receptor [1], the “Dat. 1 (Determination)” value is reported as “positive”. Turning to `CC1(C)CN(c2cc(C(=O)Nc3cccnn3)c3c(n2)CCOCC3)CC(C)(C)O1` [Ex 9, N-(pyridazin-3-yl)-2-(2,2,6,6-tetramethylmorpholin-4-yl)-5,6,8,9-tetrahydrooxepino[4,5-b]pyridine-4-carboxamide hydrochloride], at human α7 nACh receptor [2], the Max is listed as 69.3% and the EC20 was found to be 3520 nM. As to `O=C(Nc1cccnn1)c1cc(N2CCC[C@H](C(F)(F)F)C2)nc2c1CCOCC2` [Ex 1, N-(pyridazin-3-yl)-2-[(3S)-3-(trifluoromethyl)piperidin-1-yl]-5,6,8,9-tetrahydrooxepino[4,5-b]pyridine-4-carboxamide fumarate], at human α7 nACh receptor [2], the Max is on record as 99.8% and the EC20 came to 2720 nM. For the compound `C[C@@H]1CN(c2cc(C(=O)Nc3ccc(F)cn3)c3c(n2)CCOCC3)C[C@H](C)O1` [Ex 12, 2-[(2R,6S)-2,6-dimethylmorpholin-4-yl]-N-(5-fluoropyridin-2-yl)-5,6,8,9-tetrahydrooxepino[4,5-b]pyridine-4-carboxamide], at human α7 nACh receptor [2], the Max amounted to 96.9% and the EC20 was 4350 nM. For the compound `COc1ccc(NC(=O)c2cc(N3CCC[C@H]3C)nc3c2CCOCC3)nn1` [Ex 36], at human α7 nACh receptor [1], the “Dat. 1 (Determination)” value is reported as “positive”.

With `O=C(Nc1cccnn1)c1cc(N2CCC[C@@H](C(F)(F)F)C2)nc2c1CCOCC2` [Ex 7, N-(pyridazin-3-yl)-2-[(3R)-3-(trifluoromethyl)piperidin-1-yl]-5,6,8,9-tetrahydrooxepino[4,5-b]pyridine-4-carboxamide fumarate], at human α7 nACh receptor [2], the Max is recorded as 94.8% and the EC20 is 512 nM. Consider `O=C(Nc1ccc(Cl)cn1)c1cc(N2CCC(F)CC2)nc2c1CCOCC2` [Ex 51, N-(5-chloropyridin-2-yl)-2-(4-fluoropiperidin-1-yl)-5,6,8,9-tetrahydrooxepino[4,5-b]pyridine-4-carboxamide], for which the “Dat. 1 (Determination)” value at human α7 nACh receptor [1] is listed as “positive”. For `O=C(N[C@H]1CN2CCC1CC2)c1ccc(Cl)cc1` [PNU-282987, N-(3R)-1-azabicyclo[2.2.2]octo-3-yl-4-chlorobenz amide, reference compound], the “calcium response, substance alone” value on human α7 nACh receptor [2] (agonist alone or test compound alone) is reported as “not elicited”.

For the compound `C[C@H]1CCCCN1c1cc(C(=O)Nc2cccnn2)c2c(n1)CCOCC2` [Ex 69, 2-[(2S)-2-methylpiperidin-1-yl]-N-(pyridazin-3-yl)-5,6,8,9-tetrahydrooxepino[4,5-b]pyridine-4-carboxamide hydrochloride], the “Dat. 1 (Determination)” value on human α7 nACh receptor [1] is “positive”. With `Cc1ncc(NC(=O)c2cc(N3CCC[C@H]3C)nc3c2CCOCC3)nc1C` [Ex 46], the “Dat. 1 (Determination)” value at human α7 nACh receptor [1] is reported as “positive”.

For `O=C(Nc1ccc(Cl)cn1)c1cc(N2CCC[C@H](F)C2)nc2c1CCOCC2` [Ex 76, N-(5-chloropyridin-2-yl)-2-[(3S)-3-fluoropiperidin-1-yl]-5,6,8,9-tetrahydrooxepino[4,5-b]pyridine-4-carboxamide benzenesulfonate], at human α7 nACh receptor [1], the “Dat. 1 (Determination)” value was “positive”.
